# Like-named read-outs stand apart in the source and are kept apart here. Bridge positions count the residues as written; N and C are the ends. Peptide text beside a SMILES is read from it.
# Assays:
# [1] = system: cellular uptake of 2 in HeLa Kyoto cells; assay: cells; format: cell-based
# [2] = system: cellular uptake of 1 in HeLa Kyoto cells; assay: cells; format: cell-based; details: for IC50: read-out: IC50, inhibition of cellular uptake of 1; for minimal effective concentration: read-out: MIC, inhibition of cellular uptake of 1; for MIC (concentration that causes ∼15% reduction of reporter uptake), against reporter 1: pre-incubation time not given (Fig. 2: 1 h pre-incubation, 30 min with reporter; some 15 min)
# Outline: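 HeLa Kyoto cells were pre-incubated with inhibitors at varying concentrations and times, washed, then given reporter 1 at 10 μM final for 30 min at 37°C; alternatively, inhibitors were kept during reporter exposure. Hoechst/PI staining and 10x high-content imaging gave mean intracellular fluorescence per cell and viability from PI-negative nuclei.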
# [3] = HeLa Kyoto, 0.5 h, HeLa, tpre 0.5 h, then tco 0.5 h co-incubation of inhibitor and 2 (10 µM), read-out: IC50, inhibition of cellular uptake of 2
# [4] = HeLa Kyoto, HeLa, tpre 1 h with inhibitor, removal, tinc 0.5 h with 2 (10 µM), read-out: IC50, inhibition of cellular uptake of 2
# [5] = HeLa Kyoto, HeLa, tpre 4 h with inhibitor, removal, tinc 0.5 h with 2 (10 µM), read-out: IC50, inhibition of cellular uptake of 2
# [6] = HeLa Kyoto, HeLa, tpre 6 h with FBS, removal, tinc 0.5 h with 2 (10 µM), read-out: IC50, inhibition of cellular uptake of 2
# [7] = HeLa, tpre 0.5 h, then tco 0.5 h co-incubation of inhibitor and 2 (10 µM)
# [8] = HeLa, tpre 1 h with inhibitor, removal, tinc 0.5 h with 2 (10 µM)
# [9] = HeLa, tpre 4 h with inhibitor, removal, tinc 0.5 h with 2 (10 µM)
# [10] = HeLa, tpre 6 h with FBS, removal, tinc 0.5 h with 2 (10 µM)
# [11] = HeLa Kyoto, 0.5 h, HeLa, tpre 0.5 h, then tco 0.5 h co-incubation of inhibitor and 1 (10 µM)
# [12] = HeLa Kyoto, 0.5 h, HeLa, tpre 0.5 h with inhibitor, removal, tinc 0.5 h with 1 (10 µM)
# [13] = HeLa Kyoto, 0.5 h, HeLa, tpre 5.5 h with FBS, then tco 0.5 h co-incubation of inhibitor and 1 (10 µM)
# [14] = HeLa Kyoto, 0.5 h, HeLa, tpre 23.5 h with FBS, then tco 0.5 h co-incubation of inhibitor and 1 (10 µM)
# [15] = HeLa Kyoto, 1 h, HeLa, tpre 1 h with inhibitor, removal, tinc 0.5 h with 1 (10 µM)
# [16] = HeLa Kyoto, 2 h, HeLa, tpre 2 h with inhibitor, removal, tinc 0.5 h with 1 (10 µM)
# [17] = HeLa Kyoto, 4 h, HeLa, tpre 4 h with inhibitor, removal, tinc 0.5 h with 1 (10 µM)
# [18] = HeLa Kyoto, HeLa, tpre 1 h with inhibitor, removal, tinc 0.5 h with 1 (10 µM)
# [19] = HeLa Kyoto, HeLa, tpre 2 h with inhibitor, removal, tinc 0.5 h with 1 (10 µM)
# [20] = HeLa Kyoto, HeLa, tpre 4 h with inhibitor, removal, tinc 0.5 h with 1 (10 µM)
# [21] = HeLa Kyoto, HeLa, tpre 5.5 h with FBS, then tco 0.5 h co-incubation of inhibitor and 1 (10 µM)
# [22] = HeLa Kyoto, HeLa, tpre 23.5 h with FBS, then tco 0.5 h co-incubation of inhibitor and 1 (10 µM)
SMILES,"IC50 [1, 3] [µM]","IC50 [1, 4] [µM]","IC50 [1, 5] [µM]","IC50 [1, 6] [µM]","MIC, inhibition of cellular uptake of 2 [1, 7] [µM]","MIC, inhibition of cellular uptake of 2 [1, 8] [µM]","MIC, inhibition of cellular uptake of 2 [1, 9] [µM]","MIC, inhibition of cellular uptake of 2 [1, 10] [µM]","IC50 [2, 11] [µM]","minimal effective concentration [2, 11] [µM]","IC50 [2, 12] [µM]","minimal effective concentration [2, 12] [µM]","minimal effective concentration [2, 13] [µM]","minimal effective concentration [2, 14] [µM]","minimal effective concentration [2, 15] [µM]","minimal effective concentration [2, 16] [µM]","IC50 [2, 18] [µM]","IC50 [2, 19] [µM]","IC50 [2, 21] [µM]","IC50 [2, 22] [µM]",other results
CCN1C(=O)C2SSC1C(=O)N2CC(=O)O (centres unmarked) [compound 4],> 20,> 20,> 2,> 100,20,> 20,> 2,80,2 ± 0.2,0.3,4.4 ± 1.3,< 0.1,0.3,8.1,0.1,0.1,1.1 ± 0.1,1.5 ± 0.1,4.9 ± 0.5,66 ± 14,"minimal effective concentration [2, 17]: 0.1 µM; IC50 [2, 20]: 2.1 ± 0.2 µM"
CCN1C(=O)C2SSSSC1C(=O)N2CC(=O)O (centres unmarked) [compound 3],> 20,> 20,–,> 100,17,> 20,–,40,2.7 ± 0.1,< 0.5,1.7 ± 0.2,< 0.1,< 0.5,30,< 0.1,< 0.1,1.3 ± 0.2,2.7 ± 0.6,9.6 ± 1.2,> 50,"minimal effective concentration [2, 17]: < 0.1 µM; IC50 [2, 20]: 8.2 ± 3.2 µM; MIC (concentration that causes ∼15% reduction of reporter uptake), against reporter 1 ([2]; HeLa): < 0.1 µM"
O=C(O)CC[C@H](NC(=O)CCCCC1CCSS1(=O)=O)C(=O)O (some centres unmarked) [compound 15],–,–,–,–,–,–,150,–,–,–,407 ± 49,100,65,55,50,50,306 ± 30,298 ± 31,258 ± 33,219 ± 16,"IC50 ([1]; HeLa Kyoto, read-out: IC50, inhibition of cellular uptake of 2, HeLa, tpre 4 h with inhibitor, removal, tinc 0.5 h with 2 (10 µM)): > 500 µM; IC50 ([1]; HeLa Kyoto, read-out: IC50, inhibition of cellular uptake of 2, HeLa, tpre 23.5 h with FBS, then tco 0.5 h co-incubation of inhibitor and 2 (10 µM)): > 500 µM; MIC, inhibition of cellular uptake of 2 ([1]; HeLa, tpre 23.5 h with FBS, then tco 0.5 h co-incubation of inhibitor and 2 (10 µM)): < 20 µM"
O=C(O)CC[C@H](NC(=O)CN1C(=O)C2SSC1C(=O)N2CCOc1ccccc1)C(=O)O (some centres unmarked) [compound 9],–,–,> 100,> 200,–,–,60,80,–,–,89 ± 9,15,–,–,7,7,86 ± 13,> 100,–,–,–
N[C@H]1CSSC[C@@H](C(=O)NCC(=O)O)NC(=O)[C@H](CCC(=O)O)NC1=O [compound 18] (H-CECG-OH; disulfide 1-3),–,–,–,–,4,300,100,–,–,–,–,–,–,–,–,–,–,–,–,–,"IC50 ([1]; HeLa, tpre 0.5 h, then tco 0.5 h co-incubation of inhibitor and 2 (10 µM), read-out: IC50, inhibition of cellular uptake of 2): 44 ± 5 µM; IC50 ([1]; HeLa, tpre 1 h with inhibitor, removal, tinc 0.5 h with 2 (10 µM), read-out: IC50, inhibition of cellular uptake of 2): > 1000 µM; MIC, inhibition of cellular uptake of 2 ([1]; HeLa, tpre 1.5 h, then tco 0.5 h co-incubation of inhibitor and 2 (10 µM)): 4 µM; IC50 ([1]; HeLa, tpre 1.5 h, then tco 0.5 h co-incubation of inhibitor and 2 (10 µM), read-out: IC50, inhibition of cellular uptake of 2): 41 ± 4 µM; MIC, inhibition of cellular uptake of 2 ([1]; HeLa, tpre 2 h with inhibitor, removal, tinc 0.5 h with 2 (10 µM)): 200 µM; IC50 ([1]; HeLa, tpre 2 h with inhibitor, removal, tinc 0.5 h with 2 (10 µM), read-out: IC50, inhibition of cellular uptake of 2): > 1000 µM; IC50 ([1]; HeLa, tpre 4 h with inhibitor, removal, tinc 0.5 h with 2 (10 µM), read-out: IC50, inhibition of cellular uptake of 2): 859 ± 140 µM; MIC against reporter 2 ([1]; HeLa, upon co-incubation): ≈ 5 μM; minimal effective concentration ([2]; 2 h): 200 µM; MIC (concentration that causes ∼15% reduction of reporter uptake), against reporter 1 ([2]; HeLa): ≈ 300 μM; IC50 ([2]; HeLa, tpre 0.5 h, then tco 0.5 h co-incubation of inhibitor and 1 (10 µM)): > 500 µM; IC50 ([2]; HeLa, tpre 0.5 h with inhibitor, removal, tinc 0.5 h with 1 (10 µM)): > 2000 µM; IC50 ([2]; HeLa, tpre 1 h with inhibitor, removal, tinc 0.5 h with 1 (10 µM)): > 2000 µM; IC50 ([2]; HeLa, tpre 2 h with inhibitor, removal, tinc 0.5 h with 1 (10 µM)): > 2000 µM; IC50 ([2]; HeLa, tpre 5.5 h with FBS, then tco 0.5 h co-incubation of inhibitor and 1 (10 µM)): 1000 ± 110 µM; IC50 ([2]; HeLa, tpre 23.5 h with FBS, then tco 0.5 h co-incubation of inhibitor and 1 (10 µM)): 1000 ± 40 µM"

# Reference: PMC8179002, “Inhibitors of thiol-mediated uptake” (Chemical Science, 2020)
